In patent publication US20110015119A1, “NOVEL SEMI-SYNTHETIC GLYCOPEPTIDES AS ANTIBACTERIAL AGENTS” (LEAD THERAPEUTICS, INC., priority 2009, published 2011):
Converted amounts (≈) assume the structure as drawn.

Legend:
Assay type in all cases: cell-based
[1] = system: Streptococcus pyogenes 712; test: MIC by broth microdilution, SPY 712; settings: Streptococcus pyogenes, 712, read-out: MIC S PYO 712
How it was run: (§1)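 In vitro antibacterial activity: Mueller-Hinton broth microdilution per CLSI standard; isolates clinical, glycopeptide-sensitive or -resistant.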

[2] = system: Staphylococcus aureus 100 (ATCC 29213); test: MIC by broth microdilution, SA 100; settings: Staphylococcus aureus, ATCC29213, read-out: MIC SA 100
How it was run: as §1

[3] = system: Staphylococcus aureus 757 (MRSA); test: MIC by broth microdilution, SA 757; settings: Staphylococcus aureus, MRSA, read-out: MIC SA 757
How it was run: as §1

[4] = system: Staphylococcus epidermidis 831 (MRSE); test: MIC by broth microdilution, SE 831; settings: Staphylococcus epidermidis, MRSE, read-out: MIC SE 831
How it was run: as §1

[5] = system: Enterococcus faecalis 848 (VRE, Van A); test: MIC by broth microdilution, EFc 848; settings: Enterococcus faecalis, VRE, read-out: MIC E FC 848, Enterococcus faecalis 848 (VRE, Van A); class symbols
How it was run: as §1

[6] = system: Enterococcus faecium 752 (VRE, Van A); test: MIC by broth microdilution, EFcm 752; settings: Enterococcus faecium, VRE, read-out: MIC E FCM 752, Enterococcus faecium 752 (VRE, Van A); class symbols
How it was run: as §1

[7] = system: Staphylococcus epidermidis 835; test: MIC by broth microdilution, SE 835; settings: Staphylococcus epidermidis, 835, read-out: MIC SE 835
How it was run: as §1

[8] = system: Staphylococcus aureus 2012 (VISA); test: MIC by broth microdilution, SA 2012; settings: Staphylococcus aureus, VISA, read-out: MIC SA 2012, Staphylococcus aureus 2012 (VISA); class symbols
How it was run: as §1

[9] = system: Enterococcus faecalis 101 (ATCC 29212); test: MIC by broth microdilution, EFc 101; settings: Enterococcus faecalis, ATCC29212, read-out: MIC E FC 101, Enterococcus faecalis 101 (ATCC 29212); class symbols
How it was run: as §1

Enterococcus faecium 800 = test: MIC by broth microdilution, EFcm 800; settings: Enterococcus faecium, 800, read-out: MIC E FCM 800
How it was run: as §1

[10] = system: Streptococcus pneumoniae 1195 (ATCC 49619); test: MIC by broth microdilution, SPNE 1195; settings: Streptococcus pneumoniae, ATCC49619, read-out: MIC S PNE 1195
How it was run: as §1

## CCCCOc1ccc(CCNC(=O)Oc2cc(O)c3c(c2)[C@@H](C(=O)O)NC(=O)[C@H]2NC(=O)[C@H](NC(=O)[C@@H]4NC(=O)[C@H](CC(N)=O)NC(=O)[C@H](NC(=O)[C@@H](CC(C)C)NC)[C@H](O)c5ccc(c(Cl)c5)Oc5cc4cc(c5O[C@@H]4O[C@H](CO)[C@@H](O)[C@H](O)[C@H]4O[C@H]4C[C@](C)(N)[C@H](O)[C@H](C)O4)Oc4ccc(cc4Cl)[C@H]2O)c2ccc(O)c-3c2)cc1 (atropisomer, axis not shown) [Compound 351]
[1]
  MIC: 0.01 to 0.5 µg/mL (≈ 0.00599 to 0.3 µM)
[2]
  MIC: 0.01 to 0.5 µg/mL (≈ 0.00599 to 0.3 µM)
[3]
  MIC: 0.01 to 0.5 µg/mL (≈ 0.00599 to 0.3 µM)
[4]
  MIC: 0.5 to 1 µg/mL (≈ 0.3 to 0.599 µM)
[5]
  MIC: > 16 µg/mL
[6]
  MIC: 8 to 16 µg/mL (≈ 4.79 to 9.59 µM)
[7]
  MIC: 0.5 to 1 µg/mL (≈ 0.3 to 0.599 µM)
[8]
  MIC: 4 to 8 µg/mL (≈ 2.4 to 4.79 µM)
[9]
  MIC: 0.5 to 1 µg/mL (≈ 0.3 to 0.599 µM)
Enterococcus faecium 800
  MIC: 0.01 to 0.5 µg/mL (≈ 0.00599 to 0.3 µM)
[10]
  MIC: 0.01 to 0.5 µg/mL (≈ 0.00599 to 0.3 µM)

## CCCCCOc1ccc(S(=O)(=O)NCCCCCCNC(=O)Oc2cc(O)c3c(c2)[C@@H](C(=O)NC2C4CC5CC(C4)CC2C5)NC(=O)[C@H]2NC(=O)[C@H](NC(=O)[C@@H]4NC(=O)[C@H](CC(N)=O)NC(=O)[C@H](NC(=O)[C@@H](CC(C)C)NC)[C@H](O)c5ccc(c(Cl)c5)Oc5cc4cc(c5O[C@@H]4O[C@H](CO)[C@@H](O)[C@H](O)[C@H]4O[C@H]4C[C@](C)(N)[C@H](O)[C@H](C)O4)Oc4ccc(cc4Cl)[C@H]2O)c2ccc(O)c-3c2)cc1 (some centres unmarked) [Compound 317]
[1]
  MIC: 0.01 to 0.5 µg/mL (≈ 0.00513 to 0.256 µM)
[2]
  MIC: 1 to 2 µg/mL (≈ 0.513 to 1.03 µM)
[3]
  MIC: 0.5 to 1 µg/mL (≈ 0.256 to 0.513 µM)
[4]
  MIC: 1 to 2 µg/mL (≈ 0.513 to 1.03 µM)
[5]
  MIC: 8 to 16 µg/mL (≈ 4.1 to 8.2 µM)
[6]
  MIC: 1 to 2 µg/mL (≈ 0.513 to 1.03 µM)
[7]
  MIC: 2 to 4 µg/mL (≈ 1.03 to 2.05 µM)
[8]
  MIC: 8 to 16 µg/mL (≈ 4.1 to 8.2 µM)
[9]
  MIC: 1 to 2 µg/mL (≈ 0.513 to 1.03 µM)
Enterococcus faecium 800
  MIC: 0.01 to 0.5 µg/mL (≈ 0.00513 to 0.256 µM)
[10]
  MIC: 0.01 to 0.5 µg/mL (≈ 0.00513 to 0.256 µM)

## CCCOc1ccc(NC(=O)Oc2cc(O)c3c(c2)[C@@H](C(=O)O)NC(=O)[C@H]2NC(=O)[C@H](NC(=O)[C@@H]4NC(=O)[C@H](CC(N)=O)NC(=O)[C@H](NC(=O)[C@@H](CC(C)C)NC)[C@H](O)c5ccc(c(Cl)c5)Oc5cc4cc(c5O[C@@H]4O[C@H](CO)[C@@H](O)[C@H](O)[C@H]4O[C@H]4C[C@](C)(N)[C@H](O)[C@H](C)O4)Oc4ccc(cc4Cl)[C@H]2O)c2ccc(O)c-3c2)cc1 (atropisomer, axis not shown) [Compound 329]
[1]
  MIC: 0.01 to 0.5 µg/mL (≈ 0.00615 to 0.307 µM)
[2]
  MIC: 1 to 2 µg/mL (≈ 0.615 to 1.23 µM)
[3]
  MIC: 0.5 to 1 µg/mL (≈ 0.307 to 0.615 µM)
[4]
  MIC: 2 to 4 µg/mL (≈ 1.23 to 2.46 µM)
[5]
  MIC: > 16 µg/mL
[6]
  MIC: > 16 µg/mL
[7]
  MIC: 2 to 4 µg/mL (≈ 1.23 to 2.46 µM)
[8]
  MIC: 8 to 16 µg/mL (≈ 4.92 to 9.84 µM)
[9]
  MIC: 0.5 to 1 µg/mL (≈ 0.307 to 0.615 µM)
Enterococcus faecium 800
  MIC: 0.5 to 1 µg/mL (≈ 0.307 to 0.615 µM)
[10]
  MIC: 0.01 to 0.5 µg/mL (≈ 0.00615 to 0.307 µM)

## CCCCOc1ccc(CCNC(=O)Oc2cc(O)c3c(c2)[C@@H](C(=O)NC2C4CC5CC(C4)CC2C5)NC(=O)[C@H]2NC(=O)[C@H](NC(=O)[C@@H]4NC(=O)[C@H](CC(N)=O)NC(=O)[C@H](NC(=O)[C@@H](CC(C)C)NC)[C@H](O)c5ccc(c(Cl)c5)Oc5cc4cc(c5O[C@@H]4O[C@H](CO)[C@@H](O)[C@H](O)[C@H]4O[C@H]4C[C@](C)(N)[C@H](O)[C@H](C)O4)Oc4ccc(cc4Cl)[C@H]2O)c2ccc(O)c-3c2)cc1 (some centres unmarked) [Compound 339]
[1]
  MIC: 0.01 to 0.5 µg/mL (≈ 0.00555 to 0.278 µM)
[2]
  MIC: 0.01 to 0.5 µg/mL (≈ 0.00555 to 0.278 µM)
[3]
  MIC: 0.01 to 0.5 µg/mL (≈ 0.00555 to 0.278 µM)
[4]
  MIC: 0.01 to 0.5 µg/mL (≈ 0.00555 to 0.278 µM)
[5]
  MIC: 4 to 8 µg/mL (≈ 2.22 to 4.44 µM)
[6]
  MIC: 0.5 to 1 µg/mL (≈ 0.278 to 0.555 µM)
[7]
  MIC: 0.01 to 0.5 µg/mL (≈ 0.00555 to 0.278 µM)
[8]
  MIC: 0.5 to 1 µg/mL (≈ 0.278 to 0.555 µM)
[9]
  MIC: 0.01 to 0.5 µg/mL (≈ 0.00555 to 0.278 µM)
Enterococcus faecium 800
  MIC: 0.01 to 0.5 µg/mL (≈ 0.00555 to 0.278 µM)
[10]
  MIC: 0.01 to 0.5 µg/mL (≈ 0.00555 to 0.278 µM)
